Test results as given in the supplement of paper PMC10307832.

The cell lines below were run with CC1=CC(=CC=C1)NC2=NC(=CS2)C3=CC=NC=C3 + CC(C)C[C@H](NC(=O)[C@H](Cc1ccccc1)NC(=O)c1cnccn1)B(O)O [Bortezomib] (partner 0.002 µM) (assay: relative viability (nuclei count vs DMSO), 5 days (fraction); higher = more cells survive). Details: first compound 0.8 µM.
How it was run: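 Relative viability is defined as nuclei in treated wells over nuclei in vehicle wells. Duplicate plates were run and medians reported. Lung cancer cell lines in 1536-well plates were dosed by pin tool one day after seeding, with one drug or with a fixed anchor-drug dose plus five library-drug doses (not always all listed) in √10 steps, and nuclei were counted after 5 days.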

First: NCI-H1975
Second: HCC-827
The relative viability of the first is lower: 0.374 for the first, 0.946 for the second.

Compared with NCI-H2347, NCI-H1355 is higher in relative viability: 0.847 for the first, 0.991 for the second.

Going from NCI-H650 to NCI-H1666, the relative viability falls from 1.09 to 0.41.

Compared with EPLC-272H, NCI-H23 is higher in relative viability: 0.73 for the first, 1.29 for the second.

Going from NCI-H1915 to NCI-H1437, the relative viability falls from 0.944 to 0.566.

Compared with NCI-H322M, NCI-H1792 is lower in relative viability: 1.14 for the first, 0.784 for the second.

Compared with NCI-H2085, HCC-15 is lower in relative viability: 1.06 for the first, 0.973 for the second.

Going from PC-3 [JPC-3] to EKVX, the relative viability rises from 0.577 to 0.747.

With LC-2-ad the relative viability was 1.13.

Same assay, conditions: first compound 2.53 µM

Going from HCC-44 to LXF-289, the relative viability rises from 0.707 to 0.978.

Going from BEN to HARA, the relative viability rises from 0.697 to 1.03.

Compared with HCC-78, NCI-H441 is higher in relative viability: 0.414 for the first, 0.53 for the second.

Compared with LCLC-97TM1, NCI-H2023 is higher in relative viability: 0.365 for the first, 0.949 for the second.

Compared with NCI-H460, NCI-H727 is lower in relative viability: 0.902 for the first, 0.549 for the second.

First: NCI-H1755
Second: NCI-H520
The relative viability of the first is higher: 0.819 for the first, 0.786 for the second.

Compared with NCI-H2405, SW 1573 is higher in relative viability: 0.774 for the first, 1.09 for the second.

Compared with 201T, NCI-H1975 is lower in relative viability: 0.888 for the first, 0.267 for the second.

Going from HCC-827 to NCI-H2347, the relative viability falls from 0.974 to 0.804.

First: NCI-H1355
Second: NCI-H1666
The relative viability of the first is higher: 0.465 for the first, 0.388 for the second.

Going from NCI-H23 to NCI-H1915, the relative viability falls from 0.866 to 0.846.

First: NCI-H1437
Second: NCI-H322M
The relative viability of the first is lower: 0.437 for the first, 1.22 for the second.

Going from NCI-H1792 to NCI-H2085, the relative viability rises from 0.81 to 0.94.

First: HCC-15
Second: PC-3 [JPC-3]
The relative viability of the first is higher: 1.02 for the first, 0.636 for the second.

Going from EKVX to LC-2-ad, the relative viability falls from 0.957 to 0.873.

Same assay, conditions: first compound 8 µM

First: HCC-44
Second: LXF-289
The relative viability of the first is lower: 0.809 for the first, 0.823 for the second.

First: BEN
Second: HARA
The relative viability of the first is lower: 0.794 for the first, 0.936 for the second.

First: HCC-78
Second: NCI-H441
The relative viability of the first is higher: 0.274 for the first, 0.136 for the second.

Compared with LCLC-97TM1, NCI-H2023 is higher in relative viability: 0.463 for the first, 0.543 for the second.

Going from A-427 to NCI-H460, the relative viability rises from 0.84 to 0.843.

First: NCI-H727
Second: NCI-H1755
The relative viability of the first is lower: 0.446 for the first, 0.572 for the second.

Going from NCI-H520 to NCI-H2405, the relative viability rises from 0.235 to 0.903.

Compared with SW 1573, 201T is higher in relative viability: 0.807 for the first, 0.919 for the second.

Compared with NCI-H1975, HCC-827 is higher in relative viability: 0.171 for the first, 0.882 for the second.

Compared with NCI-H2347, NCI-H1355 is higher in relative viability: 0.57 for the first, 0.716 for the second.

Going from NCI-H650 to NCI-H1666, the relative viability falls from 0.857 to 0.409.

Compared with EPLC-272H, NCI-H23 is higher in relative viability: 0.352 for the first, 0.739 for the second.

First: NCI-H1915
Second: NCI-H1437
The relative viability of the first is higher: 0.762 for the first, 0.355 for the second.

First: NCI-H322M
Second: NCI-H1792
The relative viability of the first is higher: 1.03 for the first, 0.898 for the second.

Compared with NCI-H2085, HCC-15 is higher in relative viability: 0.574 for the first, 0.753 for the second.

Going from PC-3 [JPC-3] to EKVX, the relative viability rises from 0.361 to 0.696.

For LC-2-ad, the relative viability was 0.875.
